pKi: −log10 of the molar value. Where “and” joins values, the source holds several entries; their conditions need not be identical. Identical values can stand only once.

Among the data in BindingDB's records for doi:10.1016/s0006-2952(97)00631-x (Roche Bioscience, 1998) are Ki values, retold here.

The target of experiment [1] is T1, Alpha-2A adrenergic receptor (Homo sapiens, UniProt P08913).
T1 sequence (P08913 whole entry): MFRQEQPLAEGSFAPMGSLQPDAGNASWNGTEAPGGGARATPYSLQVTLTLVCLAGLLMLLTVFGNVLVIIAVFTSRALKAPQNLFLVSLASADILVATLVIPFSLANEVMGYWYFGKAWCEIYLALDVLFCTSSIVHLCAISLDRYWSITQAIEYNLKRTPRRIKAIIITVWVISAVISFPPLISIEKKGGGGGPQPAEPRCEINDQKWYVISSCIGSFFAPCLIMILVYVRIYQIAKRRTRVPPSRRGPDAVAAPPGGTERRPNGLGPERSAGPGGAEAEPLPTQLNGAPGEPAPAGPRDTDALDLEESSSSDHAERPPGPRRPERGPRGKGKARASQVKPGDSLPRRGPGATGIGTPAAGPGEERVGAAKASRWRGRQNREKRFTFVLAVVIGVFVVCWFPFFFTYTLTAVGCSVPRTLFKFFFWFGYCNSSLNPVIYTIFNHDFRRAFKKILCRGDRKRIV

Experiment [2] deals with T2, Alpha-2A adrenergic receptor (Mus musculus, UniProt Q1HL33).
T2 sequence (Q1HL33 whole entry): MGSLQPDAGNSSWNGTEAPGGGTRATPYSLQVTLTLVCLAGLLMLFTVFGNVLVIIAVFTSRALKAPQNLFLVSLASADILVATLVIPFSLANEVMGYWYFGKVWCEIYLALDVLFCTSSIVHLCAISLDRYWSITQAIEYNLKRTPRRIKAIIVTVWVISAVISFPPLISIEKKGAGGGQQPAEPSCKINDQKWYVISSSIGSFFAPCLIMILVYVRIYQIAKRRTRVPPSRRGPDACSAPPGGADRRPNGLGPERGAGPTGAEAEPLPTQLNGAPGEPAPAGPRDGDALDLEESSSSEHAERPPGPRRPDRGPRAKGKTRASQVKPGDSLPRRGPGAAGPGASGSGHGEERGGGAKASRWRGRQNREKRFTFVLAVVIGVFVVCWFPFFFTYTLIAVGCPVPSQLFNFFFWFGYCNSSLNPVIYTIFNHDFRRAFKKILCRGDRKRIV

The target of experiment [3] is T3, Alpha-2C adrenergic receptor (Homo sapiens, UniProt P18825).
T3 sequence (P18825 whole entry): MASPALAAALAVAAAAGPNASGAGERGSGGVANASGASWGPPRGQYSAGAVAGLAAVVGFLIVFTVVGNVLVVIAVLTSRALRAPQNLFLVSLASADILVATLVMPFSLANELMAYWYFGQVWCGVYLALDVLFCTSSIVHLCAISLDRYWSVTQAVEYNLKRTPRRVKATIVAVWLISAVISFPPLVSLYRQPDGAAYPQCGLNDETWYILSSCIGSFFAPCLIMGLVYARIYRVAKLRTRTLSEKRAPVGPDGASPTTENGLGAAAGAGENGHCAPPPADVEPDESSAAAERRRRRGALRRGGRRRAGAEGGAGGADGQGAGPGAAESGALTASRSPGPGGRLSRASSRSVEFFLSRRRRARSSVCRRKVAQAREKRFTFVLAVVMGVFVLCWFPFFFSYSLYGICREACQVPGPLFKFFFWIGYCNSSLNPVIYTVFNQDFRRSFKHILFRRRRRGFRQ

Turning to `c1cc2c(c(NC3=NCCN3)c1)CCCC2`, the pKi in experiment [1] is 7.50; in experiment [2], 7.81; in experiment [3], 6.56.

In the case of `Cc1cccc([C@@H](C)c2cnc[nH]2)c1C`, the pKi in experiment [2] was 8.47; in experiment [3], 7.02.

`Clc1cccc(Cl)c1N=C1NCCN1` [2-(2,6-dichloroanilino)-2-imidazoline] gave a pKi in experiment [2] of 7.39.

Take `Cc1cccc(C)c1N=C1NCCCS1` [(5,6-Dihydro-4H-[1,3]thiazin-2-yl)-(2,6-dimethyl-phenyl)-amine]: the pKi is 5.24 in experiment [1], 5.62 in experiment [2] and less than 5.00 in experiment [3].

For `Oc1ccc2c(c1O)CCC[C@@H]2C1=NCCN1` [A-54741], the negative-log Ki (pKi) was 8.01 in experiment [2] and 6.11 in experiment [3].

Turning to `C=CCN1CCc2nc(N)sc2CC1` [B-HT 920], the negative logarithm of the Ki (pKi) in experiment [1] is 6.40; in experiment [3] it was 6.02.

For `C=CCN(C1=NCCN1)c1c(Cl)cccc1Cl` [CAS_33178-86-8], the pKi in experiment [1] was 5.22; in experiment [3] it was less than 5.00.

For the compound `Fc1cccc(Cl)c1C1CC2=NCCN2C1` (centres undefined) [CAS_67249-51-8], the pKi is 8.10 in experiment [1] and 6.55 in experiment [3].

Turning to `C[C@@H](Oc1c(Cl)cccc1Cl)C1=NCCN1` [CAS_81447-78-1], the pKi in experiment [3] is 6.76.

For `CC(C)NCC(O)c1ccc(O)c(O)c1` (stereo not drawn) [Isoproterenol,(+)], the negative logarithm of the Ki (pKi) in experiment [2] was less than 5.00.

Take `CN1CCC2(CCN3CCc4c(oc5ccccc45)C3C2)N(C)C1=O` (centres undefined) [MK-912]: the negative logarithm of the Ki (pKi) in experiment [1] is 9.07; in experiment [3], 10.15.

Consider `N=C(N)NC(=O)Cc1c(Cl)cccc1Cl` [NSC_3519], for which the negative logarithm of the Ki (pKi) in experiment [2] is 7.69.

For `CCn1ccnc1CC1COc2ccccc2O1` (centres undefined) [NSC_133621], the pKi in experiment [1] is 6.50; in experiment [3], 6.82.

In the case of `c1ccc2c(CC3=NCCN3)cccc2c1` [Naphazoline], the pKi was 7.68 in experiment [1]; 7.94 and 7.77 in experiment [2]; 6.39 in experiment [3].

Take `NCC(O)c1ccc(O)c(O)c1` (stereo not drawn) [Noradrenaline,(+)]: the pKi in experiment [2] is 5.85; in experiment [3] it was 5.87.

Take `COC1(C2=NCCN2)COc2ccccc2O1` (centres undefined) [RX821002]: the values for the pKi in experiment [1], in experiment [2] and in experiment [3] were 9.44, 9.21 and 9.10, respectively.

Consider `Cc1cc(C(C)(C)C)cc(C)c1CC1=NCCN1` [SMR000058526], for which the pKi in experiment [1] is 7.82; in experiment [2], 7.59 and 7.62; in experiment [3], 6.89.

Consider `Cc1cc(C(C)(C)C)c(O)c(C)c1CC1=NCCN1` [SMR000059324], for which the pKi in experiment [2] was 7.81 and 7.59.

On to `CCc1cccc(CC)c1NC1=NCCN1` [ST 91], for which the pKi was 6.24 in experiment [1], 6.27 in experiment [2] and 6.21 in experiment [3].

Take `CC(N)C(O)c1ccc(O)c(O)c1` (stereo not drawn) [alpha-Methyl-(+/-)norepinephrine,(+/-)]: the negative-log Ki (pKi) is 5.44 in experiment [1] and 5.54 in experiment [3].

`c1ccc2ccccc2c1` [naphtaline]: the negative-log Ki (pKi) was 8.34 in experiment [1]; 8.11 and 8.03 in experiment [2]; 8.48 in experiment [3].

As for `Nc1cc(Cl)c(N=C2NCCN2)c(Cl)c1` [p-AMINOCLONIDINE], the values for the negative logarithm of the Ki (pKi) in experiment [1] and in experiment [3] were 8.10 and 7.67, respectively.

As to `C1COC(NC(C2CC2)C2CC2)=N1` [rilmenidine], the figures for the pKi in experiment [1], in experiment [2] and in experiment [3] were 5.80, 6.14 and 5.33, respectively.
